# Measurements as given in ChEMBL document CHEMBL1141984, “Carbonic anhydrase inhibitors. Inhibition of the transmembrane isozyme XII with sulfonamides-a new target for the design of antitumor and antiglaucoma drugs?” (Bioorg Med Chem Lett, 2005).
# Target: Carbonic anhydrase 12 (Homo sapiens, UniProt O43570)
# Sequence (O43570 whole entry): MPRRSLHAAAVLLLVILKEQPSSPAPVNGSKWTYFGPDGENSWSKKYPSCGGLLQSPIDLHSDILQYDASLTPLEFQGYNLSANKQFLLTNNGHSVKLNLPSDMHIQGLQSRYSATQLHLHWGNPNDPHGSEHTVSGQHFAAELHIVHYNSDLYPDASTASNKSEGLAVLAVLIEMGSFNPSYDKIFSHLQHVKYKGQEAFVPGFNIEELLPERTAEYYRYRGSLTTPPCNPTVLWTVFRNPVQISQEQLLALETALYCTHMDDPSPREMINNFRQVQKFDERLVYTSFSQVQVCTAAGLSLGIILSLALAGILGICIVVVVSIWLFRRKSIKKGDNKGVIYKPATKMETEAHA
row,Structure (SMILES),Ki [nM]
1,N[S+]([O-])c1ccc(S(=O)(=O)Nc2cccc3c(Cl)c[nH]c23)cc1 (stereo not given),3.4
2,Nc1ccc(S(N)(=O)=O)cc1Br,20
3,Nc1ccc(S(=O)(=O)NCCc2ccc(S(N)(=O)=O)cc2)cc1,4.5
4,Nc1nccc(Nc2ccc(S(N)(=O)=O)cc2)n1,3.4
5,NNc1ccccc1S(N)(=O)=O,58
6,NS(=O)(=O)c1ccc(CO)cc1,220
7,Nc1ccc(S(N)(=O)=O)cc1F,1.1
8,Nc1ccccc1S(N)(=O)=O,0.85
9,Nc1ccc(S(=O)(=O)NCc2ccc(S(N)(=O)=O)cc2)cc1,3.5
10,Nc1ccc(S(N)(=O)=O)cc1Cl,3.1
11,CNc1ccc(S(N)(=O)=O)cc1,37
12,Cn1nc(S(N)(=O)=O)sc1=N,4
13,NS(=O)(=O)c1ccc(CCO)cc1,55
14,Cc1ccc(S(N)(=O)=O)cc1 [P-TOLUENESULFONAMIDE],1.8
15,Nc1ccc(S(N)(=O)=O)cc1I,11
16,NCc1ccc(S(N)(=O)=O)cc1 [MAFENIDE],0.3
17,NS(=O)(=O)c1nnc(-c2ccccc2Cl)s1,36
18,CN(N)c1ccc(S(N)(=O)=O)cc1,11
19,Nc1ccc(S(=O)(=O)Nc2nnc(S(N)(=O)=O)s2)cc1,85
20,NS(=O)(=O)c1ccc(C(=O)O)cc1 [CARZENIDE],34
